Legend:
[1] = test system: HepG2 human liver cancer cell lines; test: MTT cytotoxicity assay; format: cell-based; conditions: HepG2, 24h exposure, versus control cell viability taken as 100%, read-out: toxicity
Description: (§1) To assess if the produced singlet oxygen can induce cytotoxicity in tumor cells, toxicity assays were performed in vitro with compound 1 in HepG2 human liver cancer cell lines. Cytotoxicity of compound 1 was evaluated through the MTT and LDH assay, which has been widely used as a colorimetric approach based on the activity of mitochondrial dehydrogenase enzyme in cells. MTT test was performed after an incubation of 24h and 48h. LDH release was monitored following an incubation of 24h and 48h with different concentrations of Compound 1 (1, 10, 20, 50 and 100 µM). Percent viability was obtained by comparing with control cell viability, considered as 100%. Data represents the mean ± SD of measurements of three independent experiments. Results of the one-way ANOVA factorial analysis. […] Thus, compound 1 was indeed able to induce cytotoxicity without the need of external excitation sources.

[2] = test system: HepG2 human liver cancer cell lines; test: LDH release cytotoxicity assay; format: cell-based; conditions: HepG2, 24h exposure, read-out: toxicity
Description: as §1

[3] = Singlet oxygen formation by quenching of ABDA fluorescence; conditions: increasing concentrations of compound (0-15 microMolar); no external excitation; sodium azide prevented the quenching
Description: The production of reactive triplet states by compound 1 was determined by assessing the formation of singlet oxygen. This latter species is formed by energy transfer from a triplet molecule to oxygen. To this end, 9,10-anthracenediyl-bis(methylene)dimalonic acid (ABDA) was added to a solution containing compound 1, as the fluorescence of ABDA is quenched by the formation of singlet oxygen. […] To confirm that the quenching of ABDA's fluorescence was due to the production of singlet oxygen, sodium azide was added to solutions containing ABDA and compound 1. Sodium azide is a known quencher of singlet oxygen. As expected, the addition of sodium azide prevented the quenching of the fluorescence emitted by ABDA (Figure 12).

SMILES: Cc1nc2c(Br)[nH]c(-c3ccc(O)cc3)cn-2c1=O [Compound 1, 8-bromo-6-(4-hydroxyphenyl)-2-methylimidazo[1,2-a]pyrazin-3(7H)-one]
- cytotoxicity at 50 µM ([1]; 50 µM): 15%
- cytotoxicity at 100 µM ([1]; 100 µM): 12%
- cytotoxicity at 50 µM ([2]; 50 µM): 15%
- cytotoxicity at 100 µM ([2]; 100 µM): 12%
- fluorescence intensity of ABDA [3]: decreased significantly
